Laboratory results published in PubChem BioAssay (NCI).
Several values for one entry are separate records, joined by “and”; a condition that tells them apart may be missing. Identical values can stand only once.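 Protocol summary: plate cells (96-well), add compound at 5 concentrations, incubate 48 h, interpolate endpoints linearly. Here, GI50 denotes the concentration required for 50% inhibition of growth. TGI marks complete inhibition of growth.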

How the values were obtained:
Experiment in all cases: DTP human tumour cell line panel, 48 h
DU-145 prostate = test system: DU-145 prostate
MDA-MB-435 = test system: MDA-MB-435
MDA-MB-231 breast = test system: MDA-MB-231 breast
DMS 114 small cell lung = test system: DMS 114 small cell lung
HOP-18 NSCLC = test system: HOP-18 NSCLC
XF 498 CNS = test system: XF 498 CNS
DLD-1 colon = test system: DLD-1 colon
MDA-N = test system: MDA-N

| SMILES | GI50 (DU-145 prostate) | TGI (DU-145 prostate) | GI50 (MDA-MB-435) | TGI (MDA-MB-435) | GI50 (MDA-MB-231 breast) | TGI (MDA-MB-231 breast) | TGI (DMS 114 small cell lung) | TGI (HOP-18 NSCLC) | TGI (XF 498 CNS) | TGI (DLD-1 colon) | TGI (MDA-N) | GI50 (MDA-N) |
| --- | --- | --- | --- | --- | --- | --- | --- | --- | --- | --- | --- | --- |
| CC1=C(C(=O)Nc2ccc(F)c(Cl)c2)C(c2ccc(Cl)cc2)NC(=O)N1 (configuration not stated) | 15.6 µM | 37 µM | 22.8 µM | 56.4 µM | 13.7 µM | 27.1 µM |  |  |  |  |  |  |
| CSc1ccc(/C=C2\CN(C)C/C(=C\c3ccc(SC)cc3)C2=O)cc1 |  |  |  |  |  |  | > 100 µM | > 100 µM | 58 µM | > 100 µM |  |  |
| CCc1ccc2c(c1)C(=O)c1c-2n(CCCBr)c(=O)c2cc([N+](=O)[O-])ccc12 | > 50 µM | > 50 µM | > 50 µM | > 50 µM | 45.7 µM | > 50 µM |  |  |  |  |  |  |
| CC(C)c1ccc(C(C)C(=O)N(CC2=C(C(C)c3ccccn3)c3ccccc3C2)C(C)C)cc1 (configuration not stated) | 5.29 µM | 18 µM | 3.73 µM | 55.6 µM | 3.47 µM | 22.7 µM |  |  |  |  |  |  |
| CSCCCN(CCCSC)CCCSC |  | > 100 µM |  | > 100 µM |  | > 100 µM |  |  |  |  | > 100 µM |  |
| Clc1cccc(Cc2cn3cc(-c4ccccc4)nc3s2)c1Cl | 22.4 µM | > 100 µM | 3.59 µM | > 100 µM | 3.08 µM | > 100 µM |  |  |  |  |  |  |
| Fc1ccc(Nc2ncnc3ccc(-c4cnc5[nH]ccc5c4)cc23)cc1Cl | 4.58 µM | > 93.3 µM | 8.66 µM | > 80.1 µM | 2.03 µM | 6.06 µM |  |  |  |  |  |  |
| O=C(NCCNc1nccc(-c2c(-c3cccc(O)c3)nc3sccn23)n1)c1ccccc1O | 5.23 µM | 35.5 µM | 0.491 µM | 12.1 µM | 2.87 µM | 32 µM |  |  |  |  |  |  |
| CC1=C(C#N)C23C(=O)c4ccccc4C(O)=C2C(=O)C=CC3(O)N1Cc1ccccc1 (configuration not stated) | 35.1 µM | > 100 µM | 38.6 µM | > 100 µM | 44.4 µM | > 100 µM |  |  |  |  |  |  |
| O=C(CN1CCN(c2cc3c(cc2F)c(=O)c(C(=O)N/N=C/c2ccccc2O)cn3C2CC2)CC1)N/N=C\c1ccccc1O | 0.716 µM | > 100 µM | 0.99 µM | > 100 µM | 0.533 µM | > 69.3 µM |  |  |  |  |  |  |
| N#CC(C#N)=c1ccc(=C2NCC3CCCN23)cc1 (configuration not stated) |  |  |  |  |  |  | > 100 µM | > 100 µM |  |  |  |  |
| COC(=O)[C@@]12C3=NO[C@]1(C(=O)OC)C(O[Si](C)(C)C(C)(C)C)[C@H]1OC(C)(C)O[C@H]1[C@@H]2C(OCc1ccccc1)CC3 (some centres not stated) |  |  |  |  |  |  | > 100 µM | > 100 µM |  | > 100 µM |  |  |
| CCCCCCCC(=O)SCC/C=C/[C@@H]1CC(=O)NCc2cccc(n2)C2=N[C@@](C)(CS2)C(=O)N[C@@H](C(C)C)C(=O)N1 | 0.3 µM | > 33.3 µM | 0.739 µM | > 33.3 µM | 2.08 µM | > 33.3 µM |  |  |  |  |  |  |
| O=c1n(CC2CO2)c(=O)n(CC2CO2)n1CC1CO1 (configuration not stated) | 3.58 µM | > 61.3 µM | 34.7 µM | > 100 µM | > 96.4 µM | > 100 µM |  |  |  |  |  |  |
| COc1cc(C(=O)/C=C/c2sc(Cl)nc2Cl)cc(OC)c1OC | 1.8 µM | 3.21 µM | 2 µM | 4.11 µM | 1.65 µM | 3.07 µM |  |  |  |  |  |  |
| CC(=O)NC1=C(NCC(C)(C)C)C(=O)c2ccccc2C1=O |  |  |  |  |  |  |  |  | 65.5 µM | > 100 µM |  |  |

| SMILES | GI50 (DU-145 prostate) | TGI (DU-145 prostate) | GI50 (MDA-MB-435) | TGI (MDA-MB-435) | GI50 (MDA-MB-231 breast) | TGI (MDA-MB-231 breast) | TGI (DMS 114 small cell lung) | TGI (HOP-18 NSCLC) | TGI (XF 498 CNS) | TGI (DLD-1 colon) | TGI (MDA-N) | GI50 (MDA-N) |
| --- | --- | --- | --- | --- | --- | --- | --- | --- | --- | --- | --- | --- |
| O=C(CCl)N1c2ccccc2Oc2ccc3ccccc3c21 | 1.17 µM | 2.53 µM | 0.577 µM | 1.88 µM | 1.28 µM | 2.81 µM |  |  |  |  |  |  |
| CC1(C)OC(=O)C(=Cc2ccc(O)cc2)C(=O)O1 |  |  |  |  |  |  | > 100 µM |  | > 100 µM |  |  |  |
| COc1ccc(/C=C\c2cc(OC)c3c(c2)OCO3)c(O)c1O |  |  |  |  |  |  | 8.81 µM | 46.4 µM | 26.6 µM | 23 µM |  |  |
| O=C(O)c1cc(C(=O)O)cc(N2C(=O)c3ccccc3C2=O)c1 |  | > 100 µM |  | > 100 µM |  | > 100 µM |  |  |  |  | > 100 µM |  |
| O=C1NNC(=O)c2ccccc2SSc2ccccc2C(=O)NNC(=O)c2ccccc2SSc2ccccc21 | 5 µM | 50 µM and 33.6 µM | 16.3 µM | 50 µM and > 100 µM | 11.4 µM | 50 µM and > 100 µM |  |  |  |  | 50 µM and > 100 µM | 11.9 µM |
| CC(C)=CCCc1c(C)ccc2c1C(=O)C(=O)C(C(C)C)=C2 |  |  |  |  |  |  | 9.36 µM | 8.12 µM | 7.15 µM | 6.51 µM |  |  |
| CCN(CC)CC(C(=O)Nc1c(C)cccc1C)/C(C)=N\NC(=O)C[N+](C)(C)C (configuration not stated) |  |  |  |  |  |  | > 100 µM |  | > 100 µM | > 100 µM |  |  |
| CC[C@@]12CCCN3CC[C@]4(c5cccc(OC)c5N(C(C)=O)[C@@H]4CC1)[C@H]32 |  | > 100 µM |  | > 100 µM |  | > 100 µM |  |  |  |  | > 100 µM |  |
| CC(=O)N1[C@H](C(=O)O)CS[C@H]1c1ccncc1 |  |  |  |  |  |  | > 100 µM | > 100 µM |  | > 100 µM |  |  |
| CCOC(=O)Nc1nc2ccc(OCC)cc2s1 | > 100 µM | > 100 µM | 0.773 µM | 3.71 µM | > 100 µM | > 100 µM |  |  |  |  |  |  |
| CN(C)c1ccc(-c2cc(-c3ccc(Nc4nc(Nc5ccc(Cl)cc5)nc(Nc5ccc(Cl)cc5)n4)cc3)no2)cc1 | 3.86 µM | 16.4 µM | 3.33 µM | 32.3 µM | 9.66 µM | 37.7 µM |  |  |  |  |  |  |
| CNC(=O)c1cc(Oc2ccc3nc(NC(=O)Nc4ccc(Cl)c(C(F)(F)F)c4)sc3c2)ccn1 |  |  |  |  | 1.43 µM | 4.29 µM |  |  |  |  |  |  |
| CCNC1C2(CCCCC2)NC(=O)C12CCCCC2 (configuration not stated) |  |  |  |  |  |  | > 100 µM |  | > 100 µM | > 100 µM |  |  |
| Cn1ccnc1C(=O)/C=C/c1ccc(CC(=O)Nc2ccc(Br)cc2)cc1 | 3.93 µM | 12.2 µM | 4.37 µM | 14.8 µM | 4.78 µM | 15.6 µM |  |  |  |  |  |  |
| COc1cc2cnc3c4cc(OC(C)C)c(OC)cc4ccc3c2cc1OC |  |  |  |  |  |  | > 100 µM | > 100 µM | > 100 µM | > 100 µM |  |  |
| Nc1cc2nc3ccccc3sc-2cc1=O | 1.77 µM | 3.25 µM | 1.76 µM | 3.26 µM | 1.76 µM | 11.8 µM |  |  |  |  |  |  |
